Measurements taken from patent US20060069132A1, “Azolecarboxamide herbicides” (priority 2004, published 2006).

What was measured:
Surinam grass = experiment: Test B pre-/postemergence herbicide test; assay type: in vivo, Urochloa decumbens; conditions: for Surinam Grass plant response rating: postemergence, scale 0 (no effect) to 100 (complete control)
How it was run: (§1)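 Greenhouse pot assay with simultaneous preemergence (treated seed) and postemergence (2–18 cm seedlings) applications of surfactant-containing, non-phytotoxic solvent formulations. Response scored visually 13–15 days later on a 0–100 scale, 100 meaning complete control.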

morningglory = experiment: Test B pre-/postemergence herbicide test; assay type: in vivo, Ipomoea coccinea; conditions: for Morningglory plant response rating: postemergence, scale 0 (no effect) to 100 (complete control)
How it was run: (§2)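 Response was scored visually 13 to 15 days after treatment against untreated greenhouse controls, 0 meaning no effect and 100 complete control. Formulations (solvent mixture plus surfactant) went onto soil after planting, onto foliage of 1- to 4-leaf plants, and onto 2-leaf plants in a flooded paddy set including rice and barnyardgrass.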

barnyardgrass [1] = experiment: Test B pre-/postemergence herbicide test; assay type: in vivo, Echinochloa crus-galli; conditions: 0 = no effect, 100 = complete control, preemergence
How it was run: as §2

rice [2] = experiment: Test B flooded paddy test; assay type: in vivo, Oryza sativa; conditions: 1000 g ai/ha, scale 0 to 100 (0 no effect, 100 complete control)
How it was run: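 Greenhouse test; postemergence application to plants at 1–4 leaves (2–18 cm); paddy species at 2 leaves; evaluated visually vs controls at 13–15 days; scale 0–100 (100 = complete control).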

velvetleaf = experiment: Test B pre-/postemergence herbicide test; assay type: in vivo, Abutilon theophrasti; conditions: for Velvetleaf plant response rating: postemergence, scale 0 (no effect) to 100 (complete control)
How it was run: as §1

[3] = system: small flower umbrella sedge; experiment: Test B flooded paddy test; assay type: in vivo, Cyperus difformis; conditions: 1000 g ai/ha, scale 0 to 100 (0 no effect, 100 complete control)
How it was run: (§3)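 Visual control ratings, 0–100 versus untreated controls, taken after 13 to 15 days in the greenhouse. Blackgrass received a postemergence spray at the 1- to 4-leaf stage (2–18 cm); ducksalad, umbrella sedge and barnyardgrass were flooded-paddy treated at 2 leaves.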

blackgrass = experiment: Test B postemergence herbicide test; assay type: in vivo, Alopecurus myosuroides; conditions: postemergence, visual rating, scale 0 (no effect) to 100 (complete control)
How it was run: as §3

ducksalad = experiment: Test B flooded paddy test; assay type: in vivo, Heteranthera limosa; conditions: 1000 g ai/ha, scale 0 to 100 (0 no effect, 100 complete control)
How it was run: as §3

large crabgrass = experiment: Test B pre-/postemergence herbicide test; assay type: in vivo, Digitaria sanguinalis; conditions: for Crabgrass, Large plant response rating: postemergence, scale 0 (no effect) to 100 (complete control)
How it was run: as §1

cocklebur = experiment: Test B pre-/postemergence herbicide test; assay type: in vivo, Xanthium strumarium; conditions: for Cocklebur plant response rating: postemergence, scale 0 (no effect) to 100 (complete control)
How it was run: as §2

giant foxtail = experiment: Test B pre-/postemergence herbicide test; assay type: in vivo, Setaria faberi; conditions: for Foxtail, Giant plant response rating: postemergence, scale 0 (no effect) to 100 (complete control)
How it was run: as §1

lambsquarters = experiment: Test B pre-/postemergence herbicide test; assay type: in vivo, Chenopodium album; conditions: for Lambsquarters plant response rating: postemergence, scale 0 (no effect) to 100 (complete control)
How it was run: as §1

pigweed = experiment: Test B pre-/postemergence herbicide test; assay type: in vivo, Amaranthus retroflexus; conditions: for Pigweed plant response rating: postemergence, scale 0 (no effect) to 100 (complete control)
How it was run: as §1

wild oat = experiment: Test B postemergence herbicide test; assay type: in vivo, Avena fatua; conditions: postemergence, visual rating, scale 0 (no effect) to 100 (complete control)
How it was run: (§4)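 After treating 2-leaf paddy plants or 2–18 cm postemergence plants (1 to 4 leaves) with formulated chemical, researchers kept them in a greenhouse for 13–15 days. Effects were judged visually versus controls: 0 indicates none, 100 total control.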

wheat = experiment: Test B postemergence herbicide test; assay type: in vivo, Triticum aestivum; design: key to Wheat plant response rating: 0 = no effect, 100 = complete control; conditions: postemergence, visual rating, scale 0 (no effect) to 100 (complete control)
How it was run: as §4

barnyardgrass [4] = experiment: Test B flooded paddy test; assay type: in vivo, Echinochloa crus-galli; conditions: 1000 g ai/ha, scale 0 to 100 (0 no effect, 100 complete control)
How it was run: as §3

rice [5] = experiment: Test B pre-/postemergence herbicide test; assay type: in vivo, Oryza sativa; conditions: 0 = no effect, 100 = complete control, preemergence
How it was run: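 Species tested were Echinochloa crus-galli, Ipomoea coccinea, Xanthium strumarium and Oryza sativa, treated both before emergence and at the 1- to 4-leaf stage; rice and barnyardgrass were also tested under flooding at 2 leaves. Greenhouse incubation lasted 13–15 days before visual 0–100 scoring.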

corn = experiment: Test B pre-/postemergence herbicide test; assay type: in vivo, Zea mays; conditions: for Corn plant response rating: postemergence, visual rating, scale 0 (no effect) to 100 (complete control)
How it was run: as §1

[6] = 125 g ai/ha, 0 = no effect, 100 = complete control, preemergence
[7] = 500 g ai/ha, visual rating, 0 = no effect, 100 = complete control, preemergence

## CCc1cn(C(C)(C)C)nc1C(=O)Nc1cc(C(=O)N(CC)CC)ccn1 [Compound 234]
Surinam grass; [6]
  Surinam Grass plant response rating (0 to 100 scale): 0
Surinam grass; [7]
  Plant response rating, Surinam Grass: 0
Surinam grass; 125 g ai/ha, visual rating
  Surinam Grass plant response rating: 0
Surinam grass; 500 g ai/ha, visual rating
  Surinam Grass plant response rating: 10
morningglory; [6]
  Morningglory plant response rating (0 to 100 scale): 0
morningglory; [7]
  Plant response rating, Morningglory: 0
morningglory; 125 g ai/ha, visual rating
  Morningglory plant response rating: 20
morningglory; 500 g ai/ha, visual rating
  Morningglory plant response rating: 70
Barnyardgrass [1]; 125 g ai/ha
  Barnyardgrass plant response rating (0 to 100 scale): 0
Barnyardgrass [1]; 500 g ai/ha, visual rating
  Plant response rating, Barnyardgrass: 0
Rice [2]
  Rice plant response rating: 0
velvetleaf; [6]
  Velvetleaf plant response rating (0 to 100 scale): 0
velvetleaf; [7]
  Plant response rating, Velvetleaf: 0
velvetleaf; 125 g ai/ha, visual rating
  Velvetleaf plant response rating: 20
velvetleaf; 500 g ai/ha, visual rating
  Velvetleaf plant response rating: 30
[3]
  Sedge, Umbrella plant response rating: 0
blackgrass; 125 g ai/ha
  Blackgrass plant response rating: 0
blackgrass; 500 g ai/ha
  Blackgrass plant response rating: 0
ducksalad
  Ducksalad plant response rating: 0
Large crabgrass; [6]
  Crabgrass, Large plant response rating (0 to 100 scale): 0
Large crabgrass; [7]
  Plant response rating, Crabgrass, Large: 40
Large crabgrass; 125 g ai/ha, visual rating
  Crabgrass, Large plant response rating: 10
Large crabgrass; 500 g ai/ha, visual rating
  Crabgrass, Large plant response rating: 20
cocklebur; [6]
  Cocklebur plant response rating (0 to 100 scale): 0
cocklebur; [7]
  Plant response rating, Cocklebur: 0
cocklebur; 125 g ai/ha, visual rating
  Cocklebur plant response rating: 10
cocklebur; 500 g ai/ha, visual rating
  Cocklebur plant response rating: 20
Giant foxtail; [6]
  Foxtail, Giant plant response rating (0 to 100 scale): 0
Giant foxtail; [7]
  Plant response rating, Foxtail, Giant: 10
Giant foxtail; 125 g ai/ha, visual rating
  Foxtail, Giant plant response rating: 0
Giant foxtail; 500 g ai/ha, visual rating
  Foxtail, Giant plant response rating: 30
lambsquarters; [6]
  Lambsquarters plant response rating (0 to 100 scale): 0
lambsquarters; [7]
  Plant response rating, Lambsquarters: 50
lambsquarters; 125 g ai/ha, visual rating
  Lambsquarters plant response rating: 20
lambsquarters; 500 g ai/ha, visual rating
  Lambsquarters plant response rating: 40
pigweed; [6]
  Pigweed plant response rating (0 to 100 scale): 0
pigweed; [7]
  Plant response rating, Pigweed: 40
pigweed; 125 g ai/ha, visual rating
  Pigweed plant response rating: 30
pigweed; 500 g ai/ha, visual rating
  Pigweed plant response rating: 30
Wild oat; 125 g ai/ha
  Oat, Wild plant response rating: 20
Wild oat; 500 g ai/ha
  Oat, Wild plant response rating: 20
wheat; 125 g ai/ha
  Wheat plant response rating: 0
wheat; 500 g ai/ha
  Wheat plant response rating: 10
Barnyardgrass [4]
  Barnyardgrass plant response rating: 0
Rice [5]; 125 g ai/ha
  Rice plant response rating (0 to 100 scale): 0
Rice [5]; 500 g ai/ha, visual rating
  Plant response rating, Rice: 0
corn; [6]
  Corn plant response rating (0 to 100 scale): 0
corn; 125 g ai/ha
  Corn plant response rating: 0
corn; 500 g ai/ha
  Corn plant response rating: 20
